This passage reports IC50 results from patent EP4177246A1, “FUSED OXAZEPINES AS INHIBITORS OF PEROXIREDOXINS” (Centro Atlántico del Medicamento, SA, priority 2021, dated 2023).

The term IC50 denotes the midpoint of a concentration-inhibition curve. The low end stands for higher potency, the high end for lower potency.

The subject of one assay is K562. In words: MTT cell viability assay, K562 cells. In kind it is cell-based. Conditions: Homo sapiens, 48 h drug exposure. The procedure:
K562 [American Type Culture Collection (ATCC) reference number CCL-243]. This a human cancer cell line derived from the bone marrow of a person with CML.
(§1) Cell viability was assayed by measuring the mitochondrial reduction of the tetrazolium salt 3-(4,5-methyltiazol-2yl)-2,5diphenyl-tetrazolium bromide] (MTT) (Applichen; A2231,0010) [Mosmann T. J Immunol Methods. 1983 16;65(1-2):55-63 (ref. 36); Chuan Y-C et al 2010. Oncogene. 29 (10), 1531-1542 (ref. 37)]. Cells were seeded in 96-well plates in medium (either RPMI, DMEM or McCoys depending on the recommendations from the ATCC) supplemented with 10% FBS (Lonza Cat. N°: 14-502F), 2mM L-Glut (Lonza Cat. N°: BE17-605E) and 100U/ml PEST (Lonza Cat. N°: DE17-605E) at a cell density of 1000-5000 cells/well (96 well plate). Cells were seeded at a density according to their exponential growth phase (normally 1000 to 5000/well). The cells were cultured at 37 °C in the dark in air containing 5% CO2. After 24h either vehicle (0.05% DMSO) or drug were added to culture medium at the indicated concentrations (10 to 0,01microM). After another 48 h, MTT (0.3 mg/ml) was added to cells, followed by incubation for 2-4h at 37 °C in the dark. The medium was then removed and the precipitated formazan was solubilized by the addition of DMSO (200 µL).
(§2) The optical density was measured at 595 nm with the iMark Microplate Reader (BioRad, USA). Data was expressed as percent growth above the level in controls and the results in figures were plotted as means ± SEM of each test point from 3 replicates.
(§3) Statistical analysis. The concentration of drug that provokes 50% reduction of cell viability (IC50) was determined by using non-linear regression analysis and data were fitted to a log concentration vs normalized response curve in GraphPad software v5 (San Diego, CA).

The next assay deals with HEL 92.1.7. Description: MTT cell viability assay, HEL cells. In kind it is cell-based. The note with it: Homo sapiens, 48 h drug exposure. Here is the method:
HEL 92.1.7 [American Type Culture Collection (ATCC) reference number TIB-180]. This a human cancer cell line derived from the bone marrow of a person with erythroleukemia, which is a form of AML.
as §1, §2, §3
In general terms: Tetrazolium assays rely on reduction of a dye to a coloured formazan, in cell work by metabolically active cells.

The subject of the next assay is MDA-MB-231. In words: MTT cell viability assay, MDA-MB-231 cells. Type of assay: cell-based, human. Conditions: Homo sapiens, 48 h drug exposure. Here is the method: MDA-MB-231 [American Type Culture Collection (ATCC) reference number HTB-26]. This a human breast cancer cell line derived from a metastatic site from a person.
as §1, §2, §3

The next assay has as its system PANC-1. In words: MTT cell viability assay, PANC-1 cells. Type of assay: cell-based. Conditions: Homo sapiens, 48 h drug exposure. Here is the method:
PANC-1 [American Type Culture Collection (ATCC) reference number CRL-1469]. This a human cancer cell line derived from the pancreas of a person.
as §1, §2, §3

For another assay, the system named is MCF-7. In words: MTT cell viability assay, MCF-7 cells. Type of assay: cell-based. The note with it: Homo sapiens, MCF7, 48 h drug exposure. The procedure: as §1, §2, §3
The test system of another assay is DU-145. Description: MTT cell viability assay, DU-145 cells. Type of assay: cell-based. The note with it: Homo sapiens, 48 h drug exposure. The procedure:
DU-145 [American Type Culture Collection (ATCC) reference number HTB-81]. This a human prostate cancer cell line derived from a metastatic site (brain) of a person.
as §1, §2, §3

As for `CN1CCN(c2ccc(N3Cc4ccccc4OC4=C3C(=O)c3c(O)ccc(O)c3C4=O)cn2)CC1` [Compound 81, 7,10-dihydroxy-12-(6-(4-methylpiperazin-1-yl)pyridin-3-yl)-12,13-dihydrobenzo[f]naphtho[2,3-b][1,4]oxazepine-6,11-dione], the IC50 stood at 0.02 µM in the assay with K562; 0.05 µM in the assay with HEL 92.1.7; 0.32 µM with MDA-MB-231; 0.26 µM in the assay on PANC-1; 0.91 µM with MCF-7; 0.82 µM in the assay on DU-145.
Consider `NS(=O)(=O)c1ccc(N2Cc3ccccc3OC3=C2C(=O)c2c(O)ccc(O)c2C3=O)cc1` [Compound 40, 4-(7,10-dihydroxy-6,11-dioxo-6,11-dihydrobenzo[f]naphtho[2,3-b][1,4]oxazepin-12(13H)-yl)benzenesulfonamide], for which the 50% inhibitory concentration (IC50) stood at 0.59 µM in the assay on K562; 0.21 µM with HEL 92.1.7; 1.96 µM in the assay on MDA-MB-231; 0.63 µM in the assay with PANC-1; 2.52 µM in the assay with MCF-7; 6.13 µM in the assay with DU-145.
For `NC(=O)c1ccc(N2Cc3ccccc3OC3=C2C(=O)c2c(O)ccc(O)c2C3=O)cc1` [Compound 10, 4-(7,10-dihydroxy-6,11-dioxo-6,11-dihydrobenzo[f]naphtho[2,3-b][1,4]oxazepin-12(13H)-yl)benzamide], the IC50 with K562 was found to be 0.09 µM; with MDA-MB-231 it was 0.63 µM; in the assay on PANC-1, 0.36 µM; in the assay with MCF-7, 1.85 µM; with DU-145 it was 6.18 µM.
For the compound `N#Cc1cccc(N2Cc3ccccc3OC3=C2C(=O)c2c(O)ccc(O)c2C3=O)c1` [Compound 9, 3-(7,10-dihydroxy-6,11-dioxo-6,11-dihydrobenzo[f]naphtho[2,3-b][1,4]oxazepin-12(13H)-yl)benzonitrile], the 50% inhibitory concentration (IC50) in the assay on K562 came to 0.08 µM; in the assay with MDA-MB-231 it was 0.38 µM; with PANC-1, 0.46 µM; with MCF-7, 1.15 µM; with DU-145, 2.53 µM.
With `NC(=O)c1cccc(N2Cc3ccccc3OC3=C2C(=O)c2c(O)ccc(O)c2C3=O)c1` [Compound 54, 3-(7,10-dihydroxy-6,11-dioxo-6,11-dihydrobenzo[f]naphtho[2,3-b][1,4]oxazepin-12(13H)-yl)benzamide], the IC50 is 0.07 µM in the assay on K562; 0.09 µM with HEL 92.1.7; 0.19 µM with MDA-MB-231; 0.38 µM in the assay with PANC-1; 1.28 µM with MCF-7; 3.41 µM in the assay with DU-145.
Regarding `COc1ccc2c(c1)OC1=C(C(=O)c3c(O)ccc(O)c3C1=O)N(C(=O)c1ccc(C#N)cc1)C2` [Compound 13], the IC50 with K562 is 0.32 µM; in the assay with MDA-MB-231, 0.78 µM; with PANC-1, 0.46 µM; in the assay on MCF-7 it was 2.75 µM; in the assay on DU-145 it was 3.72 µM.
The matching figures for `O=C1C2=C(C(=O)c3ccccc31)N(c1cccnc1)Cc1ccccc1O2` [Compound 4, 12-(pyridin-3-yl)-12,13-dihydrobenzo[f]naphtho[2,3-b][1,4]oxazepine-6,11-dione]: 0.98 µM, 1.52 µM, 4.36 µM, 5.12 µM and 8.9 µM.
On to `CN(C)c1ccc(N2Cc3ccccc3OC3=C2C(=O)c2c(O)ccc(O)c2C3=O)cn1` [Compound 62, 12-(6-(dimethylamino)pyridin-3-yl)-7,10-dihydroxy-12,13-dihydrobenzo[f]naphtho[2,3-b][1,4]oxazepine-6,11-dione], for which the IC50 in the assay on K562 was determined as 0.1 µM; with HEL 92.1.7, 0.07 µM; with MDA-MB-231, 0.27 µM; with PANC-1, 1.55 µM; in the assay with MCF-7 it was 3 µM; in the assay on DU-145, 1.32 µM.
As to `NS(=O)(=O)c1ccc(N2Cc3cc(F)ccc3OC3=C2C(=O)c2c(O)ccc(O)c2C3=O)cc1` [Compound 23], the IC50 with K562 is 0.54 µM; in the assay with MDA-MB-231, 2.54 µM; in the assay on PANC-1 it was 0.57 µM; in the assay on MCF-7, 3.23 µM; in the assay on DU-145 it was 8.16 µM.
The matching figures for `CN(C)CCNc1ccc(N2Cc3ccccc3OC3=C2C(=O)c2c(O)ccc(O)c2C3=O)cn1` [Compound 97, 12-(6-((2-(dimethylamino)ethyl)amino)pyridin-3-yl)-7,10-dihydroxy-12,13-dihydrobenzo[f]naphtho[2,3-b][1,4]oxazepine-6,11-dione]: 0.44 µM, 0.35 µM, 0.42 µM, 0.79 µM and 0.68 µM.
`N#Cc1ccc(N2Cc3ccccc3OC3=C2C(=O)c2ccccc2C3=O)cc1` [Compound 2, 4-(6,11-dioxo-6,11-dihydrobenzo[f]naphtho[2,3-b][1,4]oxazepin-12(13H)-yl)benzonitrile]: the IC50 was 0.57 µM with K562; 0.35 µM with HEL 92.1.7; 4.02 µM with MDA-MB-231; 5.6 µM in the assay with PANC-1; 4.22 µM in the assay on MCF-7; over 10 µM in the assay with DU-145.
Regarding `N#Cc1ccc(N2Cc3ccccc3OC3=C2C(=O)c2c(O)ccc(O)c2C3=O)cc1` [Compound 8, 4-(7,10-dihydroxy-6,11-dioxobenzo[f]naphtho[2,3-b][1,4]oxazepin-12(6H,11H,13H)-yl)benzonitrile], the IC50 came out at 0.23 µM with K562; 0.1 µM with HEL 92.1.7; 0.36 µM in the assay on MDA-MB-231; 0.32 µM in the assay on PANC-1; 2.59 µM in the assay on MCF-7; 6.04 µM with DU-145.
Consider `O=C1C2=C(C(=O)c3c(O)ccc(O)c31)N(c1ccc(N3CCOCC3)nc1)Cc1ccccc1O2` [Compound 59], for which the half-maximal inhibitory concentration (IC50) with K562 was determined as 0.05 µM; in the assay with HEL 92.1.7, 0.06 µM; with MDA-MB-231, 0.21 µM; in the assay on PANC-1, 0.28 µM; with MCF-7, 0.72 µM; in the assay with DU-145 it was 0.54 µM.
Take `NC(=O)c1ccc(N2Cc3cc(Cl)ccc3OC3=C2C(=O)c2c(O)ccc(O)c2C3=O)cc1` [Compound 41]: the 50% inhibitory concentration (IC50) in the assay with K562 was determined as 0.22 µM; in the assay on MDA-MB-231 it was 0.98 µM; in the assay on PANC-1 it was 0.39 µM; in the assay with MCF-7 it was 1.53 µM; in the assay with DU-145, 3.74 µM.
